Molecules are shown by their SMILES. Where only a bound is given, the exact number is not on record here.

T1 sequence (Q13882 whole entry): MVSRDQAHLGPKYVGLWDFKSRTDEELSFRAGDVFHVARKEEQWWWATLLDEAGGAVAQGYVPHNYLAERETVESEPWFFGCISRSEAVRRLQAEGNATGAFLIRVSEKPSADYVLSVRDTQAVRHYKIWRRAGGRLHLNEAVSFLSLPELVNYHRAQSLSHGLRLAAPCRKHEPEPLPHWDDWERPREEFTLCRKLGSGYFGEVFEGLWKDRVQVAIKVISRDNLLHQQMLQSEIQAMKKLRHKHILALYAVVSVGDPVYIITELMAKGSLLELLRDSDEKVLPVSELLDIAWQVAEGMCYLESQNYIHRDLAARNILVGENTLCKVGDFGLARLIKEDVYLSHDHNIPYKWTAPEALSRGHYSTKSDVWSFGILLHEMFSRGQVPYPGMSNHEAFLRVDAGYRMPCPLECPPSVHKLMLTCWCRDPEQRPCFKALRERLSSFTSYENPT

The first data set concerns the target T1, Protein-tyrosine kinase 6 (Homo sapiens, UniProt Q13882). Briefly: Inhibition of GST-tagged PTK6 (unknown origin) assessed as phosphorylated tyrosines after 20 mins by ELISA. In general terms: An ELISA detects its analyte on a solid surface through an enzyme-linked reagent.
Broadly, the IC50 is the concentration that inhibits the measured activity by half. Turning to `CCOc1cc(Cl)cc(/C=N/c2ccc3[nH]c(=O)[nH]c3c2)c1O`, the 50% inhibitory concentration (IC50) was determined as 1.99 µM.

Consider `CCOc1cc(Br)c(Br)c(/C=N/c2ccc3[nH]cnc3c2)c1O`, for which the IC50 amounted to 0.13 µM.

With `CCOc1cccc(/C=N/c2ccc3[nH]c(=O)[nH]c3c2)c1O`, the IC50 was above 10 µM.

As for `COc1cc(Br)c(Br)c(/C=N/c2ccc3[nH]c(=O)[nH]c3c2)c1O`, the IC50 worked out at 0.12 µM.

Regarding `COc1cc(Br)c(Br)c(/C=N/c2ccc3scnc3c2)c1O`, the IC50 is 1.3 µM.

Turning to `N#C/C(=C\c1c[nH]c2ccccc12)C(=O)c1ccc(O)c(O)c1`, the IC50 worked out at 2.32 µM.

Take `COc1cc(Br)cc(/C=N/c2ccc3[nH]c(=O)[nH]c3c2)c1O`: the IC50 came to 4.73 µM.

As for `COc1cc(Br)c(Br)c(/C=N/c2ccc3[nH]ccc3c2)c1O`, the IC50 stood at 0.27 µM.

With `CCOc1cc(Cl)c(Cl)c(/C=N/c2ccc3[nH]c(=O)[nH]c3c2)c1O`, the concentration for half-maximal inhibition (IC50) worked out at 1.29 µM.

As for `O=c1[nH]c2ccc(/N=C/c3ccccc3)cc2[nH]1`, the half-inhibitory concentration (IC50) is above 10 µM.

Take `O=c1[nH]c2ccc(/N=C/c3c(O)cccc3Br)cc2[nH]1`: the half-maximal inhibitory concentration (IC50) was determined as 1.35 µM.

With `COc1cc(Br)c(Br)c(CNc2ccc3[nH]c(=O)[nH]c3c2)c1O`, the IC50 is above 10 µM.

Regarding `O=c1[nH]c2ccc(/N=C/c3cc(Cl)ccc3O)cc2[nH]1`, the concentration for half-maximal inhibition (IC50) is 1.41 µM.

Take `O=c1[nH]c2ccc(/N=C/c3c(O)c(Br)cc(Br)c3Br)cc2[nH]1`: the IC50 was 0.41 µM.

For `CCOc1cc(Br)c(Br)c(/C=N/c2ccc3[nH]c(=O)[nH]c3c2)c1O`, the IC50 was 0.52 µM.

Consider `COc1cc(Br)c(Br)c(/C=N/c2ccc3[nH]cnc3c2)c1O`, for which the half-maximal inhibitory concentration (IC50) was 0.2 µM.

For the compound `CCOc1cc(Br)c(Br)c(/C=N/c2ccc3[nH]ccc3c2)c1O`, the half-maximal inhibitory concentration (IC50) came to 0.36 µM.

`CCOc1cc(Br)cc(/C=N/c2ccc3[nH]c(=O)[nH]c3c2)c1O`: the IC50 amounted to 5.83 µM.

In the case of `COc1ccc(/C=N/c2ccc3[nH]c(=O)[nH]c3c2)c(O)c1`, the half-inhibitory concentration (IC50) was above 10 µM.

As to `CCOc1cc(Br)c(Br)c(/C=N/c2ccc3scnc3c2)c1O`, the IC50 amounted to 1.17 µM.

Consider `O=c1[nH]c2ccc(/N=C/c3ccc(O)cc3O)cc2[nH]1`, for which the IC50 is above 10 µM.

As for `O=c1[nH]c2ccc(/N=C/c3cc(Br)ccc3O)cc2[nH]1`, the IC50 was 1.9 µM.

For the compound `COc1cc(I)cc(/C=N/c2ccc3[nH]c(=O)[nH]c3c2)c1O`, the half-maximal inhibitory concentration (IC50) came to 4.98 µM.

Regarding `COc1cc(Cl)cc(/C=N/c2ccc3[nH]c(=O)[nH]c3c2)c1O`, the IC50 was determined as 1.68 µM.

For the compound `CCOc1cc(Br)c(Br)c(CNc2ccc3[nH]c(=O)[nH]c3c2)c1O`, the 50% inhibitory concentration (IC50) worked out at 4.79 µM.

For `COc1ccc(Br)c(/C=N/c2ccc3[nH]c(=O)[nH]c3c2)c1O`, the IC50 was 3.9 µM.

In the case of `COc1ccc(Br)cc1/C=N/c1ccc2[nH]c(=O)[nH]c2c1`, the IC50 was determined as 17.1 µM.

Turning to `COc1cc(Br)cc(/C=N/c2ccc3[nH]c(=O)[nH]c3c2)c1OC`, the IC50 is above 10 µM.

As to `O=c1[nH]c2ccc(/N=C/c3cc(Br)cc(Br)c3O)cc2[nH]1`, the IC50 was determined as 5.6 µM.

As for `O=c1[nH]c2ccc(/N=C/c3ccccc3O)cc2[nH]1`, the concentration for half-maximal inhibition (IC50) came out at 2 µM.

For the compound `COc1cccc(/C=N/c2ccc3[nH]c(=O)[nH]c3c2)c1O`, the IC50 was above 10 µM.

For a further data set, the target named is T1, Protein-tyrosine kinase 6. Put plainly: Inhibition of PTK6 (unknown origin) expressed in HEK293 cells assessed as decrease in tyrosine phosphorylation by chemiluminescence assay. The format is cell-based.
For the compound `CCOc1cc(Cl)cc(/C=N/c2ccc3[nH]c(=O)[nH]c3c2)c1O`, the IC50 came out at 51.2 µM.

Consider `CCOc1cc(Br)c(Br)c(/C=N/c2ccc3[nH]cnc3c2)c1O`, for which the concentration for half-maximal inhibition (IC50) worked out at 4.71 µM.

Turning to `COc1cc(Br)c(Br)c(/C=N/c2ccc3[nH]c(=O)[nH]c3c2)c1O`, the half-inhibitory concentration (IC50) came out at 1.46 µM.

On to `COc1cc(Br)c(Br)c(/C=N/c2ccc3scnc3c2)c1O`, for which the IC50 turned out to be 4.61 µM.

For the compound `N#C/C(=C\c1c[nH]c2ccccc12)C(=O)c1ccc(O)c(O)c1`, the half-inhibitory concentration (IC50) is 53.2 µM.

Turning to `COc1cc(Br)cc(/C=N/c2ccc3[nH]c(=O)[nH]c3c2)c1O`, the IC50 amounted to 52.4 µM.

On to `COc1cc(Br)c(Br)c(/C=N/c2ccc3[nH]ccc3c2)c1O`, for which the IC50 was 3.49 µM.

In the case of `CCOc1cc(Cl)c(Cl)c(/C=N/c2ccc3[nH]c(=O)[nH]c3c2)c1O`, the IC50 stood at 3.48 µM.

On to `O=c1[nH]c2ccc(/N=C/c3c(O)cccc3Br)cc2[nH]1`, for which the half-inhibitory concentration (IC50) is 24.5 µM.

Turning to `O=c1[nH]c2ccc(/N=C/c3cc(Cl)ccc3O)cc2[nH]1`, the half-maximal inhibitory concentration (IC50) was above 100 µM.

On to `O=c1[nH]c2ccc(/N=C/c3c(O)c(Br)cc(Br)c3Br)cc2[nH]1`, for which the IC50 turned out to be 11.8 µM.

Take `CCOc1cc(Br)c(Br)c(/C=N/c2ccc3[nH]c(=O)[nH]c3c2)c1O`: the half-maximal inhibitory concentration (IC50) was found to be 1.6 µM.

As to `COc1cc(Br)c(Br)c(/C=N/c2ccc3[nH]cnc3c2)c1O`, the half-maximal inhibitory concentration (IC50) is 5.52 µM.

For `CCOc1cc(Br)c(Br)c(/C=N/c2ccc3[nH]ccc3c2)c1O`, the IC50 amounted to 7.58 µM.

Take `CCOc1cc(Br)cc(/C=N/c2ccc3[nH]c(=O)[nH]c3c2)c1O`: the IC50 was 23.5 µM.

`CCOc1cc(Br)c(Br)c(/C=N/c2ccc3scnc3c2)c1O`: the IC50 is 2.54 µM.

With `O=c1[nH]c2ccc(/N=C/c3cc(Br)ccc3O)cc2[nH]1`, the IC50 was above 100 µM.

For the compound `COc1cc(I)cc(/C=N/c2ccc3[nH]c(=O)[nH]c3c2)c1O`, the IC50 is 58.1 µM.

Take `COc1cc(Cl)cc(/C=N/c2ccc3[nH]c(=O)[nH]c3c2)c1O`: the IC50 was 74 µM.

Take `COc1ccc(Br)c(/C=N/c2ccc3[nH]c(=O)[nH]c3c2)c1O`: the IC50 was 16.6 µM.

As for `COc1ccc(Br)cc1/C=N/c1ccc2[nH]c(=O)[nH]c2c1`, the IC50 was above 100 µM.

Consider `O=c1[nH]c2ccc(/N=C/c3cc(Br)cc(Br)c3O)cc2[nH]1`, for which the IC50 is 49 µM.

As to `O=c1[nH]c2ccc(/N=C/c3ccccc3O)cc2[nH]1`, the IC50 was above 100 µM.

A further data set concerns HFF. Briefly: Cytotoxicity against human foreskin fibroblast up to 100 uM after 24 hrs by MTT assay. Type of data set: cell-based. In general terms: Tetrazolium assays rely on reduction of a dye to a coloured formazan, in cell work by metabolically active cells.
For the compound `COc1cc(Br)c(Br)c(/C=N/c2ccc3[nH]c(=O)[nH]c3c2)c1O`, the Activity entry was “Toxic”.

With `CCOc1cc(Br)c(Br)c(/C=N/c2ccc3[nH]c(=O)[nH]c3c2)c1O`, the Activity result is recorded as “Non-toxic”.

For another data set, the system named is HFF. Put plainly: Cytotoxicity against human foreskin fibroblast after 24 hrs by MTT assay. Type of data set: cell-based.
As for `COc1cc(Br)c(Br)c(/C=N/c2ccc3[nH]c(=O)[nH]c3c2)c1O`, the Activity result is reported as “Toxic”.

For a further data set, the target named is Proto-oncogene tyrosine-protein kinase Src (Homo sapiens, UniProt P12931). Briefly: Inhibition of Src (unknown origin) expressed in HEK293 cells assessed as decrease in phosphorylation by chemiluminescence assay. The format is cell-based.
Proto-oncogene tyrosine-protein kinase Src, sequence (P12931 2-536 limits assumed): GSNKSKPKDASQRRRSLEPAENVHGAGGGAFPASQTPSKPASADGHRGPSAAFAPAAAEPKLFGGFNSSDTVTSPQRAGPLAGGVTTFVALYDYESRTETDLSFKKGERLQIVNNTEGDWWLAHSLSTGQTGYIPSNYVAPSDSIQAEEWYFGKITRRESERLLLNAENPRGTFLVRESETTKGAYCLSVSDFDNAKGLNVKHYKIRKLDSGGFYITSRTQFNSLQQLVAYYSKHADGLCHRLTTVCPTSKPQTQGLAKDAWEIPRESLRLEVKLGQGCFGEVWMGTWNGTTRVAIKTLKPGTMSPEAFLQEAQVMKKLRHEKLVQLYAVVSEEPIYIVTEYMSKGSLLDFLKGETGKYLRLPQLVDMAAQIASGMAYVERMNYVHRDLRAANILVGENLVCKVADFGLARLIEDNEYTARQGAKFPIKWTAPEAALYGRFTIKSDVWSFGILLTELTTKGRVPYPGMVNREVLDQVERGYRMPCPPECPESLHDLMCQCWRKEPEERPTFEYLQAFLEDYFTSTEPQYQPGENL
As for `COc1cc(Br)c(Br)c(/C=N/c2ccc3[nH]c(=O)[nH]c3c2)c1O`, the half-inhibitory concentration (IC50) was above 100 µM.

For the compound `O=c1c(-c2ccc(O)cc2)coc2cc(O)cc(O)c12` [GENISTEIN], the IC50 is above 100 µM.

Consider `CCOc1cc(Br)c(Br)c(/C=N/c2ccc3[nH]c(=O)[nH]c3c2)c1O`, for which the IC50 was above 100 µM.

For the next data set, the target named is Tyrosine-protein kinase Fyn (Homo sapiens, UniProt P06241). Put plainly: Inhibition of Fyn (unknown origin) expressed in HEK293 cells assessed as decrease in phosphorylation by chemiluminescence assay. The format is cell-based.
Tyrosine-protein kinase Fyn, sequence (P06241 whole entry): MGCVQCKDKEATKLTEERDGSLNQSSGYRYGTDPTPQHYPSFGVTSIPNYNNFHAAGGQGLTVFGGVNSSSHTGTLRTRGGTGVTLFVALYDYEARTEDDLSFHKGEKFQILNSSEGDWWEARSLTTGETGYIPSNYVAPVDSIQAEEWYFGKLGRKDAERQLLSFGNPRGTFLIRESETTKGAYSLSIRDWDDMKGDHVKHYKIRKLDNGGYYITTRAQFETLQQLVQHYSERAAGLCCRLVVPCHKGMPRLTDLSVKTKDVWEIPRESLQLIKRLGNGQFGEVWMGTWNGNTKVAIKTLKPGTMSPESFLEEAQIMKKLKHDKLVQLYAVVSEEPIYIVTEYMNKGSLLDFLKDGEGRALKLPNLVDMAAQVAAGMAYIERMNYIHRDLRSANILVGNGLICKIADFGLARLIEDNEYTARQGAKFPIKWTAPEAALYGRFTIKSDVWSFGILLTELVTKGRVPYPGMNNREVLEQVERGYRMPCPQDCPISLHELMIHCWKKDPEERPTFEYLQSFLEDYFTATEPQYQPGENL
Take `COc1cc(Br)c(Br)c(/C=N/c2ccc3[nH]c(=O)[nH]c3c2)c1O`: the IC50 stood at 38.7 µM.

In the case of `O=c1c(-c2ccc(O)cc2)coc2cc(O)cc(O)c12` [GENISTEIN], the 50% inhibitory concentration (IC50) turned out to be 58.2 µM.

Turning to `CCOc1cc(Br)c(Br)c(/C=N/c2ccc3[nH]c(=O)[nH]c3c2)c1O`, the IC50 was found to be 68.5 µM.

The target of a further data set is T2, Cytoplasmic tyrosine-protein kinase BMX (Homo sapiens, UniProt P51813).
T2 sequence (P51813 whole entry): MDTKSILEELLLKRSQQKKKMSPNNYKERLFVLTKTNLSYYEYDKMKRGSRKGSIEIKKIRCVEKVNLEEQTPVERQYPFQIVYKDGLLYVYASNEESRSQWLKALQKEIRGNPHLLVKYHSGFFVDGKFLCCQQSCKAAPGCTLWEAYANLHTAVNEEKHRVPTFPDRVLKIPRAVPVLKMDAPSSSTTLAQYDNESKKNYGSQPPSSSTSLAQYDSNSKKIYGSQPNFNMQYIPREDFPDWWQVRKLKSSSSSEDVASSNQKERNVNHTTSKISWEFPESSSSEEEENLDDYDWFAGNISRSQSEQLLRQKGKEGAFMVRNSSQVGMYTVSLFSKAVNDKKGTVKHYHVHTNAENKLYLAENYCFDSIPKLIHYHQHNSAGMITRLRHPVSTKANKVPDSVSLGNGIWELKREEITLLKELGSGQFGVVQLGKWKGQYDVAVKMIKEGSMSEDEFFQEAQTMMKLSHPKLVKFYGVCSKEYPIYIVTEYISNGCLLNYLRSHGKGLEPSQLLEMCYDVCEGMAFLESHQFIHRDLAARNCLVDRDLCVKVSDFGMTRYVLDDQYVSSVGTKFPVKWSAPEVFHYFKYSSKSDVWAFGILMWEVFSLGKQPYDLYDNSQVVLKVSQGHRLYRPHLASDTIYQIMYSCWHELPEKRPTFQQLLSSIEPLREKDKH
Put plainly: Inhibition of Bmx (unknown origin) expressed in HEK293 cells assessed as decrease in phosphorylation by chemiluminescence assay. The format is cell-based.
For `COc1cc(Br)c(Br)c(/C=N/c2ccc3[nH]c(=O)[nH]c3c2)c1O`, the IC50 was found to be 38.6 µM.

`O=c1c(-c2ccc(O)cc2)coc2cc(O)cc(O)c12` [GENISTEIN]: the concentration for half-maximal inhibition (IC50) came out at 68 µM.

Turning to `CCOc1cc(Br)c(Br)c(/C=N/c2ccc3[nH]c(=O)[nH]c3c2)c1O`, the half-maximal inhibitory concentration (IC50) stood at 42.3 µM.

The target of the next data set is Epidermal growth factor receptor (Homo sapiens, UniProt P00533).
Epidermal growth factor receptor, sequence (P00533 whole entry): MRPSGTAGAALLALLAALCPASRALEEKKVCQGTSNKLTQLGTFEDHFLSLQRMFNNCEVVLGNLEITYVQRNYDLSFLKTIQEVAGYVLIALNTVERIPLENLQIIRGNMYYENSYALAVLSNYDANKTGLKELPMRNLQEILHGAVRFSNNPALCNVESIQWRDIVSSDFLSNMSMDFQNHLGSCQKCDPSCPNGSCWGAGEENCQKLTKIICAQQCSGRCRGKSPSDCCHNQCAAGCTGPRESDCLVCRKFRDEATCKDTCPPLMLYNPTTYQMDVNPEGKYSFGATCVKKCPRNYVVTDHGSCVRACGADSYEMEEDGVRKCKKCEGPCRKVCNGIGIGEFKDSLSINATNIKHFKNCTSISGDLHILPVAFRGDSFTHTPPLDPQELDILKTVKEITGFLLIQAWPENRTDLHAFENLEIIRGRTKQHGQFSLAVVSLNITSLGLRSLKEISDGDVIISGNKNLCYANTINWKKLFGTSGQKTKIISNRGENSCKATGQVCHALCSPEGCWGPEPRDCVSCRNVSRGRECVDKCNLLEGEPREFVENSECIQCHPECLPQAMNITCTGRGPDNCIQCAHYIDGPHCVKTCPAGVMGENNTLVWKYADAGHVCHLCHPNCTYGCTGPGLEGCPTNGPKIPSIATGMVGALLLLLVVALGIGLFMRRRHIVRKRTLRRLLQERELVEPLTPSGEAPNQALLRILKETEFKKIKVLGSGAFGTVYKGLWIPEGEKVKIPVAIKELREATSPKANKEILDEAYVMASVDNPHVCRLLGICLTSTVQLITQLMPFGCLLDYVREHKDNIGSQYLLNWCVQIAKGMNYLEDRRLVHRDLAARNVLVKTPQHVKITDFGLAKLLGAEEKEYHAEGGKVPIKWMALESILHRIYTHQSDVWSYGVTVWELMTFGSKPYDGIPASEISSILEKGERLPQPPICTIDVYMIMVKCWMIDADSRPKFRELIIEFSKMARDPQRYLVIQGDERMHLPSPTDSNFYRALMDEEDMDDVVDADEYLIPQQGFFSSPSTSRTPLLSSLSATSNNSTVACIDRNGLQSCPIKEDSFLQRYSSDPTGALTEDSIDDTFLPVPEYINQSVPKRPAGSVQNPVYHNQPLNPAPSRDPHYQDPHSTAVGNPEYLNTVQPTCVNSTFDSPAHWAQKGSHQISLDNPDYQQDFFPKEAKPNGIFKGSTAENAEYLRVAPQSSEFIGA
Description: Inhibition of EGFR (unknown origin) expressed in HEK293 cells assessed as decrease in phosphorylation by chemiluminescence assay
Compound `COc1cc(Br)c(Br)c(/C=N/c2ccc3[nH]c(=O)[nH]c3c2)c1O` registered a 50% inhibitory concentration (IC50) of 88.7 µM.

The compound `CCOc1cc(Br)c(Br)c(/C=N/c2ccc3[nH]c(=O)[nH]c3c2)c1O` came in with a 50% inhibitory concentration (IC50) of 76.7 µM.

The values above are taken from ChEMBL document CHEMBL3352553, “Discovery of (E)-5-(benzylideneamino)-1H-benzo[d]imidazol-2(3H)-one derivatives as inhibitors for PTK6” (Bioorg Med Chem Lett, 2014).
